Calls of active or inactive are those of the source. The calls are words filed in the database; no cut-off is given here.
The compounds below were run on SK-BR-3 (assay: Antiproliferative activity against human SKBR3 cells).
Format: functional, cell-based
`CC(C)=CCc1cc(C(=O)Nc2cc3ccc(Oc4ccc(C(C)(C)C)cc4)c(C)c3oc2=O)ccc1O` showed an IC50 of 68.3 µM.
`COc1cccc(Cc2ccc3cc(NC(=O)c4ccc(O)c(CC=C(C)C)c4)c(=O)oc3c2C)c1` was tested, and the IC50 was 14.8 µM.
`COCOc1ccc(Cc2ccc3cc(NC(=O)c4ccc(OC(C)=O)c(CC=C(C)C)c4)c(=O)oc3c2C)cc1OC` was tested, and the IC50 was 14.2 µM.
`COc1cccc(Oc2ccc3cc(NC(=O)c4ccc(OC)c(-c5cccc(OC)c5)c4)c(=O)oc3c2C)c1` gave an IC50 of over 100 µM.
With `COc1cccc(-c2cc(C(=O)Nc3cc4ccc(Cc5ccccc5)c(C)c4oc3=O)ccc2OC)c1` the IC50 was 4.09 µM.
With `COc1ccc(Oc2ccc3cc(NC(=O)c4ccc(OC)c(-c5cccc(OC)c5)c4)c(=O)oc3c2C)cc1` the IC50 was over 100 µM.
Compound `COc1ccc(Oc2ccc3cc(NC(=O)c4ccc(OC(C)=O)c(CC=C(C)C)c4)c(=O)oc3c2C)cc1` has an IC50 of 19.5 µM.
Work on `CC(=O)Oc1ccc(C(=O)Nc2cc3ccc(Oc4ccc(C(C)(C)C)cc4)c(C)c3oc2=O)cc1CC=C(C)C` yielded an IC50 of 72.4 µM.
`COc1ccc(Nc2ccc3cc(NC(=O)c4ccc(OC)c(-c5cccc(OC)c5)c4)c(=O)oc3c2C)cc1` gave an IC50 of over 100 µM.
Work on `CC(C)=CCc1cc(C(=O)Nc2cc3ccc(Cc4ccc(O)cc4)c(C)c3oc2=O)ccc1O` yielded an IC50 of 21.5 µM.
Work on `COc1ccc(Nc2ccc3cc(NC(=O)c4ccc(OC(C)=O)c(CC=C(C)C)c4)c(=O)oc3c2C)cc1` yielded an IC50 of over 100 µM.
`COCOc1ccc(Cc2ccc3cc(NC(=O)c4ccc(OC(C)=O)c(CC=C(C)C)c4)c(=O)oc3c2C)cc1` gave an IC50 of 13.5 µM.
For `COc1ccc(Cc2ccc3cc(NC(=O)c4ccc(OC)c(-c5cccc(OC)c5)c4)c(=O)oc3c2C)cc1`, the IC50 was over 100 µM.
Work on `COc1cccc(Oc2ccc3cc(NC(=O)c4ccc(OC(C)=O)c(CC=C(C)C)c4)c(=O)oc3c2C)c1` yielded an IC50 of 13.7 µM.
`COc1ccc(Oc2ccc3cc(NC(=O)c4ccc(O)c(CC=C(C)C)c4)c(=O)oc3c2C)cc1` showed an IC50 of 42.7 µM.
`COc1cccc(-c2cc(C(=O)Nc3cc4ccc(Oc5ccc(C(C)(C)C)cc5)c(C)c4oc3=O)ccc2OC)c1` showed an IC50 of over 100 µM.
Compound `COc1ccc(Cc2ccc3cc(NC(=O)c4ccc(OC(C)=O)c(CC=C(C)C)c4)c(=O)oc3c2C)cc1` has an IC50 of 23.5 µM.
With `COc1cccc(Oc2ccc3cc(NC(=O)c4ccc(O)c(CC=C(C)C)c4)c(=O)oc3c2C)c1` the IC50 was 33.1 µM.
With `COc1ccc(Nc2ccc3cc(NC(=O)c4ccc(O)c(CC=C(C)C)c4)c(=O)oc3c2C)cc1` the IC50 was over 100 µM.
With `COc1ccc(Cc2ccc3cc(NC(=O)c4ccc(O)c(CC=C(C)C)c4)c(=O)oc3c2C)cc1` the IC50 was 11.1 µM.
Work on `COc1cc(Cc2ccc3cc(NC(=O)c4ccc(O)c(CC=C(C)C)c4)c(=O)oc3c2C)ccc1O` yielded an IC50 of 10.7 µM.
For `COc1ccc(Cc2ccc3cc(NC(=O)c4ccc(O)c(CC=C(C)C)c4)c(=O)oc3c2C)cc1OC`, the IC50 was over 100 µM.

The compounds below were run on MCF7 (assay: Antiproliferative activity against human MCF7 cells).
Format: functional, cell-based
With `CC(C)=CCc1cc(C(=O)Nc2cc3ccc(Oc4ccc(C(C)(C)C)cc4)c(C)c3oc2=O)ccc1O` the IC50 was 20.6 µM.
In the case of `COc1cccc(Cc2ccc3cc(NC(=O)c4ccc(O)c(CC=C(C)C)c4)c(=O)oc3c2C)c1`, the IC50 is reported as 19.7 µM.
With `COCOc1ccc(Cc2ccc3cc(NC(=O)c4ccc(OC(C)=O)c(CC=C(C)C)c4)c(=O)oc3c2C)cc1OC` the IC50 was 14.9 µM.
In the case of `COc1cccc(Oc2ccc3cc(NC(=O)c4ccc(OC)c(-c5cccc(OC)c5)c4)c(=O)oc3c2C)c1`, the IC50 is reported as over 100 µM.
`COc1cccc(-c2cc(C(=O)Nc3cc4ccc(Cc5ccccc5)c(C)c4oc3=O)ccc2OC)c1` showed an IC50 of 7.11 µM.
Work on `COc1ccc(Oc2ccc3cc(NC(=O)c4ccc(OC)c(-c5cccc(OC)c5)c4)c(=O)oc3c2C)cc1` yielded an IC50 of over 100 µM.
Compound `COc1ccc(Oc2ccc3cc(NC(=O)c4ccc(OC(C)=O)c(CC=C(C)C)c4)c(=O)oc3c2C)cc1` has an IC50 of 18.2 µM.
Work on `CC(=O)Oc1ccc(C(=O)Nc2cc3ccc(Oc4ccc(C(C)(C)C)cc4)c(C)c3oc2=O)cc1CC=C(C)C` yielded an IC50 of 75 µM.
In the case of `COc1ccc(Nc2ccc3cc(NC(=O)c4ccc(OC)c(-c5cccc(OC)c5)c4)c(=O)oc3c2C)cc1`, the IC50 is reported as over 100 µM.
Work on `CC(C)=CCc1cc(C(=O)Nc2cc3ccc(Cc4ccc(O)cc4)c(C)c3oc2=O)ccc1O` yielded an IC50 of 32.1 µM.
`COc1ccc(Nc2ccc3cc(NC(=O)c4ccc(OC(C)=O)c(CC=C(C)C)c4)c(=O)oc3c2C)cc1` gave an IC50 of over 100 µM.
Work on `COCOc1ccc(Cc2ccc3cc(NC(=O)c4ccc(OC(C)=O)c(CC=C(C)C)c4)c(=O)oc3c2C)cc1` yielded an IC50 of 22.7 µM.
`COc1ccc(Cc2ccc3cc(NC(=O)c4ccc(OC)c(-c5cccc(OC)c5)c4)c(=O)oc3c2C)cc1` showed an IC50 of over 100 µM.
For `COc1cccc(Oc2ccc3cc(NC(=O)c4ccc(OC(C)=O)c(CC=C(C)C)c4)c(=O)oc3c2C)c1`, the IC50 was 15.7 µM.
Work on `COc1ccc(Oc2ccc3cc(NC(=O)c4ccc(O)c(CC=C(C)C)c4)c(=O)oc3c2C)cc1` yielded an IC50 of 6.51 µM.
Work on `COc1cccc(-c2cc(C(=O)Nc3cc4ccc(Oc5ccc(C(C)(C)C)cc5)c(C)c4oc3=O)ccc2OC)c1` yielded an IC50 of over 100 µM.
Compound `COc1ccc(Cc2ccc3cc(NC(=O)c4ccc(OC(C)=O)c(CC=C(C)C)c4)c(=O)oc3c2C)cc1` has an IC50 of 11.5 µM.
`COc1cccc(Oc2ccc3cc(NC(=O)c4ccc(O)c(CC=C(C)C)c4)c(=O)oc3c2C)c1` showed an IC50 of 62.8 µM.
With `COc1ccc(Nc2ccc3cc(NC(=O)c4ccc(O)c(CC=C(C)C)c4)c(=O)oc3c2C)cc1` the IC50 was over 100 µM.
With `COc1ccc(Cc2ccc3cc(NC(=O)c4ccc(O)c(CC=C(C)C)c4)c(=O)oc3c2C)cc1` the IC50 was 13.2 µM.
Compound `COc1cc(Cc2ccc3cc(NC(=O)c4ccc(O)c(CC=C(C)C)c4)c(=O)oc3c2C)ccc1O` has an IC50 of 14.6 µM.
Compound `COc1ccc(Cc2ccc3cc(NC(=O)c4ccc(O)c(CC=C(C)C)c4)c(=O)oc3c2C)cc1OC` has an IC50 of 13.9 µM.

The compounds below were run against Heat shock protein HSP 90-beta (Homo sapiens) (UniProt P08238) (assay: Inhibition of human C-terminal domain of Hsp90 in MCF7 cells assessed as Her2 degradation at 0.1 to 100 uM by Western blotting).
Sequence of Heat shock protein HSP 90-beta (Homo sapiens) (P08238 whole entry, the tested form may be a part): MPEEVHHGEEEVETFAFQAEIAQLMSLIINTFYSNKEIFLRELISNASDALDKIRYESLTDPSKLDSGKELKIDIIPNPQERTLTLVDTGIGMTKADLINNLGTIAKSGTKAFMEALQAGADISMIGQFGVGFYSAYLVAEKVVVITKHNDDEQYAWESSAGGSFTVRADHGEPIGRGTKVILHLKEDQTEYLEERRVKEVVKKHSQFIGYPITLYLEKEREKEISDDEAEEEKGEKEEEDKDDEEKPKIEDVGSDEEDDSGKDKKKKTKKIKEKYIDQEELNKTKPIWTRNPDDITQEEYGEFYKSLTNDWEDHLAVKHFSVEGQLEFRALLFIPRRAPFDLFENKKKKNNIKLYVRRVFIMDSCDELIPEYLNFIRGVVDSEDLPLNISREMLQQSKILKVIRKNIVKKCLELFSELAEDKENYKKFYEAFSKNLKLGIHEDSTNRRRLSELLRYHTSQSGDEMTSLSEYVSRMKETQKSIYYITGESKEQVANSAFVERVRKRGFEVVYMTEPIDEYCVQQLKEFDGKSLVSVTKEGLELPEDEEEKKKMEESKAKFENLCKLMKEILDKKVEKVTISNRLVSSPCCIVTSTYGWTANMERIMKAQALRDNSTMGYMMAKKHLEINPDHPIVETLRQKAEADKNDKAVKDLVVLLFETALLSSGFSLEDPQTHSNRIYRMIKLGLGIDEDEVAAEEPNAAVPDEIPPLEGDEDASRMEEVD
Format: cell-based
In the case of `COc1ccc(Oc2ccc3cc(NC(=O)c4ccc(O)c(CC=C(C)C)c4)c(=O)oc3c2C)cc1`, the inhibition is reported as “Active”.
In the case of `COc1ccc(Cc2ccc3cc(NC(=O)c4ccc(OC(C)=O)c(CC=C(C)C)c4)c(=O)oc3c2C)cc1`, the inhibition is reported as “Active”.

Each compound was assayed against Heat shock protein HSP 90-beta (Homo sapiens) (UniProt P08238) (assay: Inhibition of human C-terminal domain of Hsp90 in MCF7 cells assessed as Raf degradation at 0.1 to 100 uM by Western blotting).
Format: cell-based
`COc1ccc(Oc2ccc3cc(NC(=O)c4ccc(O)c(CC=C(C)C)c4)c(=O)oc3c2C)cc1` was tested, and the inhibition was “Active”.
With `COc1ccc(Cc2ccc3cc(NC(=O)c4ccc(OC(C)=O)c(CC=C(C)C)c4)c(=O)oc3c2C)cc1` the inhibition was “Active”.

What follows are compounds tested against Heat shock protein HSP 90-beta (Homo sapiens) (UniProt P08238) (assay: Inhibition of human C-terminal domain of Hsp90 in MCF7 cells assessed as Akt degradation at 0.1 to 100 uM by Western blotting).
Format: cell-based
With `COc1ccc(Oc2ccc3cc(NC(=O)c4ccc(O)c(CC=C(C)C)c4)c(=O)oc3c2C)cc1` the inhibition was “Active”.
`COc1ccc(Cc2ccc3cc(NC(=O)c4ccc(OC(C)=O)c(CC=C(C)C)c4)c(=O)oc3c2C)cc1` was tested, and the inhibition was “Active”.

Each compound was assayed against Heat shock protein HSP 90-beta (Homo sapiens) (UniProt P08238) (assay: Induction of human Hsp90 activity in MCF7 cells at 0.1 to 100 uM by Western blotting).
Format: cell-based
With `COc1ccc(Oc2ccc3cc(NC(=O)c4ccc(O)c(CC=C(C)C)c4)c(=O)oc3c2C)cc1` the Activity was “inactive”.
For `COc1ccc(Cc2ccc3cc(NC(=O)c4ccc(OC(C)=O)c(CC=C(C)C)c4)c(=O)oc3c2C)cc1`, the Activity was “inactive”.

The compounds below were run on MCF7 (assay: Ratio of IC50 for human SKBR3 cells to IC50 for human MCF7 cells).
Format: functional
With `COc1ccc(Cc2ccc3cc(NC(=O)c4ccc(O)c(CC=C(C)C)c4)c(=O)oc3c2C)cc1OC` the “Ratio IC50” value was 10.

Source: ChEMBL document CHEMBL1921797, “Synthesis and biological evaluation of arylated novobiocin analogs as Hsp90 inhibitors” (Bioorg Med Chem Lett, 2011)
